We go through 13 compounds from ChEMBL document CHEMBL1201862, “PubChem BioAssay data set” (2004).

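Growth conditions: 96-well plates. Treatment: test compound, 48 hours, 5 concentrations. Analysis: linear interpolation between bracketing concentrations; unreached endpoints set to highest concentration. GI50: concentration for 50% inhibition of growth.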 Calls of active or inactive are those of the source. Rule as the data show it: active = GI50 up to about 1.1 µM and inactive = higher.

Test systems include MOLT-4; HL-60; RXF 393; M14; 786-0; OVCAR-3; ACHN; NCI-H23; COLO 205; SN12C; K562; A549; EKVX; UACC-257; CAKI-1; Malme-3M; NCI-H226.
Assay in all cases: NCI-60 cell line screen, 48 h

Turning to `C/C(=N\N=C(\N)S)c1ccc(Oc2ccccc2)cc1`, the GI50 is 0.971 µM (active) with MOLT-4; 4.06 µM (inactive) in the assay on HL-60; 10.3 µM (inactive) in the assay on RXF 393; 9.98 µM (inactive) with M14; 4.05 µM (inactive) in the assay on 786-0; 10.1 µM (inactive) with OVCAR-3. Also, the GI50 in the assay on ACHN was 10.3 µM (inactive); in the assay with NCI-H23 it was 11.8 µM (inactive); with COLO 205 it was 8.36 µM (inactive); in the assay with SN12C it was 11.4 µM (inactive); with K562 it was 4.83 µM (inactive); in the assay with A549, 18.7 µM (inactive). Further, the GI50 in the assay with EKVX was 12.2 µM (inactive).

With `O=c1ncc(F)cn1C1OC(CO)C(O)C1O` (centres undefined), the GI50 in the assay with MOLT-4 is > 20.7 µM (inactive); in the assay on HL-60 it was 19.3 µM (inactive); in the assay on UACC-257, 14.1 µM (inactive); in the assay on CAKI-1, 15.5 µM (inactive); in the assay with RXF 393 it was > 100 µM (inactive); with M14, > 52 µM (inactive). The GI50 in the assay on 786-0 is > 36.4 µM (inactive); with OVCAR-3, > 26.7 µM (inactive); with ACHN it was > 44 µM (inactive); with Malme-3M, > 29.8 µM (inactive); with NCI-H23 it was > 100 µM (inactive); in the assay with NCI-H226 it was > 19.1 µM (inactive). Besides, the GI50 in the assay on COLO 205 was > 24.6 µM (inactive); in the assay with SN12C, > 17.4 µM (inactive); with K562 it was 7.38 µM (inactive); with A549 it was > 36.6 µM (inactive); in the assay with EKVX it was > 100 µM (inactive).

Regarding `O=C(C#Cc1ccccc1)Nc1ccccc1CC(c1c[nH]c2ccccc12)c1c[nH]c2ccccc12`, the GI50 is 3.33 µM (inactive) in the assay with MOLT-4; 23.8 µM (inactive) with UACC-257; 16.9 µM (inactive) in the assay with CAKI-1; 3.02 µM (inactive) in the assay with RXF 393; 15.6 µM (inactive) in the assay with M14; 9.53 µM (inactive) with 786-0. The GI50 in the assay with OVCAR-3 is 9.44 µM (inactive); with Malme-3M it was 25.6 µM (inactive); in the assay with NCI-H23, 15.4 µM (inactive); in the assay with NCI-H226, 16.6 µM (inactive); in the assay with COLO 205 it was 18.2 µM (inactive); in the assay on SN12C, 8.83 µM (inactive). The GI50 with K562 is 4.47 µM (inactive); in the assay on A549, 23.2 µM (inactive); in the assay on EKVX, 12.3 µM (inactive).

For the compound `O=C1c2cccc3cc([N+](=O)[O-])cc(c23)C(=O)N1CCCN1CCN(CCCN2C(=O)c3cccc4cc([N+](=O)[O-])cc(c34)C2=O)CC1`, the GI50 with MOLT-4 is 0.027 µM (active); in the assay with HL-60 it was 0.34 µM (active); in the assay on UACC-257, 0.585 µM (active); in the assay on CAKI-1 it was 0.0293 µM (active); in the assay on RXF 393, 0.0933 µM (active); in the assay on M14, 0.706 µM (active). Further, the GI50 is 0.0594 µM (active) with 786-0; 1.09 µM (active) in the assay on OVCAR-3; < 0.01 µM (active) with ACHN; 0.571 µM (active) in the assay on Malme-3M; 0.859 µM (active) in the assay with NCI-H23; 0.0702 µM (active) in the assay on NCI-H226. Besides, the GI50 with COLO 205 is 0.108 µM (active); in the assay on SN12C, 0.08 µM (active); with K562, 0.0232 µM (active); in the assay on A549, 0.0381 µM (active); in the assay on EKVX it was 0.612 µM (active).

Take `CCCOC(=O)C1CCC(=O)N1C(=O)C(C)Cl` (centres undefined): the GI50 with MOLT-4, with HL-60, in the assay on UACC-257, in the assay on CAKI-1, in the assay on M14 and in the assay on 786-0 was > 100 µM (inactive) in each case. Further, the GI50 in the assay on OVCAR-3, in the assay with ACHN, in the assay on Malme-3M, in the assay on NCI-H23, in the assay on NCI-H226 and with COLO 205 was > 100 µM (inactive) each time. Also, the GI50 in the assay with SN12C, in the assay on K562, in the assay on A549 and with EKVX was > 100 µM (inactive) each time.

For the compound `O=C(O)CNCc1c2ccccc2[n+]([O-])c2ccccc12`, the GI50 in the assay with MOLT-4 was 31 µM (inactive); in the assay on HL-60 it was 33.5 µM (inactive); in the assay on UACC-257, > 100 µM (inactive); with CAKI-1 it was > 100 µM (inactive); with M14, > 100 µM (inactive); in the assay with 786-0 it was 58.2 µM (inactive). The GI50 with OVCAR-3 was > 100 µM (inactive); in the assay on ACHN, 57.4 µM (inactive); in the assay on Malme-3M it was > 100 µM (inactive); in the assay with NCI-H23 it was 69.3 µM (inactive); in the assay on NCI-H226, > 100 µM (inactive); in the assay on COLO 205 it was > 100 µM (inactive). In addition, the GI50 was 73.6 µM (inactive) with SN12C, 38.2 µM (inactive) with K562, > 100 µM (inactive) in the assay with A549 and > 100 µM (inactive) in the assay on EKVX.

For the compound `CC12OC(=O)C(C#N)C1(C)C1C(=O)CCCC12` (centres undefined), the GI50 with MOLT-4, with HL-60, in the assay with RXF 393, in the assay with M14, in the assay on 786-0 and in the assay with OVCAR-3 was > 100 µM (inactive) in each case. The GI50 in the assay on ACHN, in the assay with Malme-3M, in the assay with NCI-H23, in the assay on NCI-H226, with COLO 205 and in the assay on SN12C was > 100 µM (inactive) each time. Further, the GI50 with K562, in the assay with A549 and with EKVX was > 100 µM (inactive) throughout.

For the compound `CCN(CC)c1ccc(C2N3CCCCC3[C@@H]3c4[nH]c5ccccc5c4CCN23)cc1` (some centres undefined), the GI50 was 25.5 µM (inactive) in the assay on MOLT-4; 7.43 µM (inactive) in the assay with HL-60; 27.7 µM (inactive) with UACC-257; 74.3 µM (inactive) in the assay with CAKI-1; 15.8 µM (inactive) in the assay with RXF 393; 24.8 µM (inactive) with M14. Moreover, the GI50 in the assay on 786-0 was 37.8 µM (inactive); in the assay on OVCAR-3 it was 23.9 µM (inactive); in the assay on ACHN it was 27 µM (inactive); in the assay on Malme-3M, 24.2 µM (inactive); in the assay on NCI-H23, 34.9 µM (inactive); in the assay on COLO 205, 27.4 µM (inactive). Also, the GI50 in the assay with SN12C was 19.7 µM (inactive); with K562, 15.2 µM (inactive); in the assay on A549, 49.1 µM (inactive); in the assay with EKVX, 74.8 µM (inactive).

Consider `CCCCN(CCCC)CC(C(=O)Nc1ccc([N+](=O)[O-])cc1[N+](=O)[O-])/C(C)=N\NC(=S)NN` (centres undefined), for which the GI50 is 70 µM (inactive) in the assay on MOLT-4; 46 µM (inactive) in the assay on HL-60; > 100 µM (inactive) with UACC-257; 96.2 µM (inactive) in the assay with RXF 393; > 100 µM (inactive) in the assay on M14; > 100 µM (inactive) in the assay on 786-0. In addition, the GI50 in the assay with OVCAR-3 was 84.3 µM (inactive); with ACHN, 56.6 µM (inactive); in the assay on Malme-3M, > 100 µM (inactive); with NCI-H23, > 100 µM (inactive); in the assay with NCI-H226, > 100 µM (inactive); in the assay with COLO 205 it was > 100 µM (inactive). Also, the GI50 with K562 is 40.7 µM (inactive); in the assay with A549, > 100 µM (inactive); in the assay with EKVX it was 65.6 µM (inactive).

As to `O[C@]12CCCC[C@H]1CCC2`, the GI50 in the assay with MOLT-4, in the assay with HL-60, with UACC-257, with CAKI-1, with RXF 393 and in the assay with M14 was > 100 µM (inactive) each time. Further, the GI50 with 786-0, in the assay on OVCAR-3, in the assay on ACHN, in the assay with Malme-3M, in the assay with NCI-H23 and in the assay on COLO 205 was > 100 µM (inactive) throughout. Moreover, the GI50 in the assay with SN12C, in the assay with K562, with A549 and in the assay on EKVX was > 100 µM (inactive) in each case.

Regarding `COc1cc(C2c3cc4c(cc3[C@@H](NCCN3CCCCC3)C3COC(=O)[C@H]23)OCO4)cc(OC)c1O` (some centres undefined), the GI50 was 0.0164 µM (active) in the assay on MOLT-4; 0.0426 µM (active) with HL-60; 2.78 µM (inactive) with UACC-257; 0.0918 µM (active) with CAKI-1; 0.273 µM (active) with M14; 0.179 µM (active) in the assay with 786-0. Further, the GI50 is 0.78 µM (active) in the assay on OVCAR-3; 0.486 µM (active) with ACHN; 0.29 µM (active) in the assay with Malme-3M; 0.206 µM (active) in the assay with NCI-H23; 0.0387 µM (active) with NCI-H226; 1.01 µM (active) in the assay on COLO 205. Also, the GI50 with SN12C is 1.91 µM (inactive); in the assay with K562, 0.615 µM (active); with A549 it was 0.0656 µM (active); with EKVX, 1.55 µM (inactive).

For `COC(=O)CC(C(C(=O)OC)C(=O)OC)N1C(=O)OC(c2ccccc2)C1c1ccccc1` (centres undefined), the GI50 with MOLT-4 is > 100 µM (inactive); with HL-60 it was 37 µM (inactive); in the assay on UACC-257, > 100 µM (inactive); with CAKI-1, 19.3 µM (inactive); with RXF 393, 74.5 µM (inactive); with M14 it was > 100 µM (inactive). The GI50 in the assay with 786-0, in the assay on OVCAR-3, in the assay with ACHN, with Malme-3M, in the assay with NCI-H23 and in the assay on NCI-H226 was > 100 µM (inactive) throughout. Moreover, the GI50 in the assay on COLO 205 was 86.9 µM (inactive); in the assay on SN12C it was > 100 µM (inactive); in the assay with K562, > 100 µM (inactive); in the assay on A549, > 100 µM (inactive); in the assay with EKVX, > 100 µM (inactive).

Turning to `Cc1c(O)c(=O)ccn1CCN`, the GI50 with MOLT-4, in the assay with UACC-257, in the assay with CAKI-1, in the assay with RXF 393, in the assay with M14 and in the assay on 786-0 was > 100 µM (inactive) in each case. Moreover, the GI50 with ACHN, in the assay with Malme-3M, in the assay on NCI-H23, in the assay on NCI-H226, with COLO 205 and with SN12C was > 100 µM (inactive) each time. In addition, the GI50 in the assay on K562, in the assay on A549 and with EKVX was > 100 µM (inactive) each time.
